Measured values reported in paper PMC12730265, “Combinatorial Antimicrobial Effects of Imidazolium-Based Ionic Liquids and Antifungals on Model Fungal Organisms” (Biomolecules, 2025).
Where two headings read alike, the source gives them in different places.

What was measured:
Assay type in all cases: cell-based
S. boulardii = test: MIC50 by microbroth dilution; details: Saccharomyces cerevisiae
Description: (§1) A single colony was picked from each streak to prepare overnight in 5 mL fresh YPD broth and placed into a tilted rotating incubator set at 30 °C and 40 rpm overnight. After ~16–20 h, a fresh dilution in media (1:200) was made and used for the experiment. […] Finally, diluted culture was added to each well of a sterile 96-well plate containing serially diluted aliquots of each RTIL to a total volume of 100 µL. The plate was incubated at 30 °C overnight with shaking for 24 and 48 h. At both timepoints, the yeast was manually resuspended in the plate by pipetting and we measured the OD600 using a Spectramax M5 multimode plate reader (Molecular Devices, San Jose, CA, USA).
(§2) The four species of yeast tested included three common lab strains of non-pathogenic yeast strains, S. boulardii, S. cerevisiae, and S. pombe, and one common human pathogen, C. albicans.

S. cerevisiae [1] = test: MIC50 by microbroth dilution; details: Saccharomyces cerevisiae
Description: as §1, §2

S. pombe = test: MIC50 by microbroth dilution; details: Schizosaccharomyces pombe
Description: as §1, §2

C. albicans [2] = test: MIC50 by microbroth dilution; details: Candida albicans, 48 h
Description: as §1, §2

C. albicans [3] = test: Kirby–Bauer disk diffusion assay on IL-containing YPD plates; details: for inhibition of C. albicans growth around disk: absence of added IL
Description: (§3) Assessment of fungal growth on YPD plates with AFs + ILs served as an indicator for the combined efficacy of treatment of ILs and AFs. YPD agar plates were made with addition of increasing concentrations of [HMIM]Cl at 0, 2.5, 6.25, and 25 mM or [OMIM]Cl at 0, 0.25, 0.625, and 2.5 mM. Plates solidified and dried on bench for 24 h before use. IN total, 400 μL of S. cerevisiae or C. albicans liquid culture at mid-log phase OD600 0.5 was spread using sterile glass beads to achieve even distribution. Following addition of culture, the plates were allowed to dry for 30 min before the addition of antifungal disks. Antifungal-infused disks were prepared using the stock solutions of solubilized antibiotics; 15 μL of each of the 4 azole antifungals at stock concentrations was pipetted onto a sterile 6 mm cellulose disk (BD). […] After plate drying was complete, sterile forceps were used to transfer the disks to the media, and the plate was grown upright in an incubator overnight at 30 °C. The following day, photographs were taken of the plates to visualize the zone of inhibition (ZOI) created by the combined treatment. Adobe Illustrator 2023 CC was used to perform digital measurements of ZOI diameters.
(§4) To assess the potential for combinatorial effects of ILs and AFs in yeast, Kirby–Bauer disk diffusion assays were performed for C. albicans and S. cerevisiae for [HMIM]Cl and [OMIM]Cl with all four AFs. […] The addition of 6 mm cellulose disks infused with equal volumes of solubilized AFs to the plates occurred after plating of C. albicans or S. cerevisiae, allowing for growth for 48 h at 23 °C, at which point the plates were evaluated for the establishment of zones of inhibition (ZOI). Digital pictures were acquired of all plates, and measurements of ZOI diameter were performed digitally as described in the Methods. […] With progressively increasing amounts of both [HMIM]Cl and [OMIM]Cl, ZOIs increased for all Afs, including Fluconazole and Itraconazole, which appear to be ineffective without IL in the Kirby–Bauer disk assay. Experiments were performed in triplicate and ZOIs were measured for all plates.

S. cerevisiae [4] = test: as above; details: 100 = no growth on plate
Description: as §3, §4
Similar experiments testing the combinatorial effects of [HMIM]Cl or [OMIM]Cl were performed on S. cerevisiae using Kirby–Bauer disk assays and quantified for changes in ZOI (Appendix Figure A1). ZOI measurements (mm) from both C. albicans and S. cerevisiae were compiled, and the averages are shown numerically as well as with shading and plotted in Figure 3. […] Finally, at intermediate concentrations of both [HMIM]Cl and [OMIM]Cl, a combinatorial effect of IL + AF was evident for all four AFs in S. cerevisiae, similar to observations in C. albicans.

[5] = 50% growth after 48 h in YPD media, OD600, read-out: MIC50

Structure (SMILES): CCn1cc[n+](C)c1 [[EMIM]Cl, 1-ethyl-3-methylimidazolium chloride]
- MIC50 (S. boulardii; 48 h): 25 mM
- MIC50 (S. cerevisiae [1]; 48 h): 50 mM
- MIC50 (S. pombe; 48 h): 50 mM
- MIC50 (C. albicans [2]): > 100 mM

Structure (SMILES): CC(=O)N1CCN(c2ccc(OCC3COC(Cn4ccnc4)(c4ccc(Cl)cc4Cl)O3)cc2)CC1 (stereo not shown) [Ketoconazole]
- MIC50 (S. boulardii; [5]): 0.5 µg/mL
- MIC50 (S. cerevisiae [1]; [5]): 0.5 µg/mL
- MIC50 (S. pombe; [5]): 0.5 µg/mL
- MIC50 (C. albicans [2]; [5]): 1 µg/mL
- Zone of inhibition (ZOI) diameter (C. albicans [3]; [HMIM]Cl 0 mM in plate): 13.67 mm
- Zone of inhibition (ZOI) diameter (C. albicans [3]; [HMIM]Cl 2.5 mM in plate): 17 mm
- Zone of inhibition (ZOI) diameter (C. albicans [3]; [HMIM]Cl 6.25 mM in plate): 29 mm
- Zone of inhibition (ZOI) diameter (C. albicans [3]; [HMIM]Cl 25 mM in plate): 47.67 mm
- Zone of inhibition (ZOI) diameter (C. albicans [3]; [OMIM]Cl 0 M in plate): 13.67 mm
- Zone of inhibition (ZOI) diameter (C. albicans [3]; [OMIM]Cl 0.25 mM in plate): 19.33 mm
- Zone of inhibition (ZOI) diameter (C. albicans [3]; [OMIM]Cl 0.625 mM in plate): 28 mm
- Zone of inhibition (ZOI) diameter (C. albicans [3]; [OMIM]Cl 2.5 mM in plate): 57.33 mm
- inhibition of C. albicans growth around disk (C. albicans [3]): minimal inhibition
- Zone of inhibition (ZOI) diameter (S. cerevisiae [4]; [HMIM]Cl 0 mM in plate): 25 mm
- Zone of inhibition (ZOI) diameter (S. cerevisiae [4]; [HMIM]Cl 2.5 mM in plate): 27.33 mm
- Zone of inhibition (ZOI) diameter (S. cerevisiae [4]; [HMIM]Cl 6.25 mM in plate): 63 mm
- Zone of inhibition (ZOI) diameter (S. cerevisiae [4]; [HMIM]Cl 25 mM in plate): 100 mm
- Zone of inhibition (ZOI) diameter (S. cerevisiae [4]; [OMIM]Cl 0 M in plate): 25 mm
- Zone of inhibition (ZOI) diameter (S. cerevisiae [4]; [OMIM]Cl 0.25 mM in plate): 29.67 mm
- Zone of inhibition (ZOI) diameter (S. cerevisiae [4]; [OMIM]Cl 0.625 mM in plate): 57.33 mm
- Zone of inhibition (ZOI) diameter (S. cerevisiae [4]; [OMIM]Cl 2.5 mM in plate): 100 mm

Structure (SMILES): OC(Cn1cncn1)(Cn1cncn1)c1ccc(F)cc1F [Fluconazole]
- MIC50 (S. boulardii; [5]): 4 µg/mL
- MIC50 (S. cerevisiae [1]; [5]): 4 µg/mL
- MIC50 (S. pombe; [5]): 4 µg/mL
- MIC50 (C. albicans [2]; [5]): 8 µg/mL
- Zone of inhibition (ZOI) diameter (C. albicans [3]; [HMIM]Cl 0 mM in plate): 0 mm
- Zone of inhibition (ZOI) diameter (C. albicans [3]; [HMIM]Cl 2.5 mM in plate): 0 mm
- Zone of inhibition (ZOI) diameter (C. albicans [3]; [HMIM]Cl 6.25 mM in plate): 31.33 mm
- Zone of inhibition (ZOI) diameter (C. albicans [3]; [HMIM]Cl 25 mM in plate): 47.33 mm
- Zone of inhibition (ZOI) diameter (C. albicans [3]; [OMIM]Cl 0 M in plate): 0 mm
- Zone of inhibition (ZOI) diameter (C. albicans [3]; [OMIM]Cl 0.25 mM in plate): 0 mm
- Zone of inhibition (ZOI) diameter (C. albicans [3]; [OMIM]Cl 0.625 mM in plate): 29.33 mm
- Zone of inhibition (ZOI) diameter (C. albicans [3]; [OMIM]Cl 2.5 mM in plate): 70.33 mm
- inhibition of C. albicans growth around disk (C. albicans [3]): no inhibition
- Zone of inhibition (ZOI) diameter (S. cerevisiae [4]; [HMIM]Cl 0 mM in plate): 34 mm
- Zone of inhibition (ZOI) diameter (S. cerevisiae [4]; [HMIM]Cl 2.5 mM in plate): 36 mm
- Zone of inhibition (ZOI) diameter (S. cerevisiae [4]; [HMIM]Cl 6.25 mM in plate): 43.33 mm
- Zone of inhibition (ZOI) diameter (S. cerevisiae [4]; [HMIM]Cl 25 mM in plate): 100 mm
- Zone of inhibition (ZOI) diameter (S. cerevisiae [4]; [OMIM]Cl 0 M in plate): 34 mm
- Zone of inhibition (ZOI) diameter (S. cerevisiae [4]; [OMIM]Cl 0.25 mM in plate): 37.33 mm
- Zone of inhibition (ZOI) diameter (S. cerevisiae [4]; [OMIM]Cl 0.625 mM in plate): 69 mm
- Zone of inhibition (ZOI) diameter (S. cerevisiae [4]; [OMIM]Cl 2.5 mM in plate): 100 mm

Structure (SMILES): CCC(C)n1ncn(-c2ccc(N3CCN(c4ccc(OCC5COC(Cn6cncn6)(c6ccc(Cl)cc6Cl)O5)cc4)CC3)cc2)c1=O (stereo not shown) [Itraconazole]
- MIC50 (S. boulardii; [5]): 0.5 µg/mL
- MIC50 (S. cerevisiae [1]; [5]): 0.5 µg/mL
- MIC50 (S. pombe; [5]): 0.5 µg/mL
- MIC50 (C. albicans [2]; [5]): 1 µg/mL
- Zone of inhibition (ZOI) diameter (C. albicans [3]; [HMIM]Cl 0 mM in plate): 0 mm
- Zone of inhibition (ZOI) diameter (C. albicans [3]; [HMIM]Cl 2.5 mM in plate): 0 mm
- Zone of inhibition (ZOI) diameter (C. albicans [3]; [HMIM]Cl 6.25 mM in plate): 12.67 mm
- Zone of inhibition (ZOI) diameter (C. albicans [3]; [HMIM]Cl 25 mM in plate): 16 mm
- Zone of inhibition (ZOI) diameter (C. albicans [3]; [OMIM]Cl 0 M in plate): 0 mm
- Zone of inhibition (ZOI) diameter (C. albicans [3]; [OMIM]Cl 0.25 mM in plate): 0 mm
- Zone of inhibition (ZOI) diameter (C. albicans [3]; [OMIM]Cl 0.625 mM in plate): 16.33 mm
- Zone of inhibition (ZOI) diameter (C. albicans [3]; [OMIM]Cl 2.5 mM in plate): 26.33 mm
- inhibition of C. albicans growth around disk (C. albicans [3]): no inhibition
- Zone of inhibition (ZOI) diameter (S. cerevisiae [4]; [HMIM]Cl 0 mM in plate): 8 mm
- Zone of inhibition (ZOI) diameter (S. cerevisiae [4]; [HMIM]Cl 2.5 mM in plate): 9.33 mm
- Zone of inhibition (ZOI) diameter (S. cerevisiae [4]; [HMIM]Cl 6.25 mM in plate): 14 mm
- Zone of inhibition (ZOI) diameter (S. cerevisiae [4]; [HMIM]Cl 25 mM in plate): 100 mm
- Zone of inhibition (ZOI) diameter (S. cerevisiae [4]; [OMIM]Cl 0 M in plate): 8 mm
- Zone of inhibition (ZOI) diameter (S. cerevisiae [4]; [OMIM]Cl 0.25 mM in plate): 9 mm
- Zone of inhibition (ZOI) diameter (S. cerevisiae [4]; [OMIM]Cl 0.625 mM in plate): 21.67 mm
- Zone of inhibition (ZOI) diameter (S. cerevisiae [4]; [OMIM]Cl 2.5 mM in plate): 100 mm
